PubChem BioAssay (NCI)
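Method: 48-hour compound exposure of cells in 96-well plates, five concentrations, linear interpolation of endpoints. Here, GI50 denotes the concentration required for 50% inhibition of growth. At the TGI there is no net growth.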

How the values were obtained:
Test in all cases: NCI-60 cell line screen, 48 h
[1] = tested on: RPMI-8226 leukemia
[2] = tested on: NCI-H23 lung
[3] = tested on: SF-539 CNS
[4] = tested on: MALME-3M melanoma
[5] = tested on: EKVX NSCLC
[6] = tested on: OVCAR-8 ovarian
[7] = tested on: PC-3 prostate
[8] = tested on: IGROV1 ovarian
[9] = tested on: 786-0 renal
[10] = tested on: CCRF-CEM leukemia
[11] = tested on: SK-MEL-28 melanoma
[12] = tested on: MOLT-4 leukemia
[13] = tested on: SR leukemia
[14] = tested on: ACHN renal
[15] = tested on: TK-10 renal
[16] = tested on: MCF7 breast
[17] = tested on: NCI-H460 lung
[18] = tested on: CAKI-1 renal
[19] = tested on: HCT-116 colon
[20] = tested on: OVCAR-3 ovarian
[21] = tested on: KM12 colon
[22] = tested on: NCI-H522 lung
[23] = tested on: HT29 colon
[24] = tested on: U251 CNS
[25] = tested on: SK-OV-3 ovarian
[26] = tested on: MDA-MB-231 breast
[27] = tested on: SF-295 CNS
[28] = tested on: MDA-MB-435
[29] = tested on: T-47D breast
[30] = tested on: A549 NSCLC
[31] = tested on: HS 578T breast
[32] = tested on: NCI/ADR-RES ovarian
[33] = tested on: A498 renal
[34] = tested on: HL-60(TB) leukemia
[35] = tested on: NCI-H226 lung
[36] = tested on: HCT-15 colon
[37] = tested on: OVCAR-5 ovarian
[38] = tested on: K-562 leukemia
[39] = tested on: SN12C renal
[40] = tested on: OVCAR-4 ovarian
[41] = tested on: SK-MEL-5 melanoma
[42] = tested on: UO-31 renal
[43] = tested on: UACC-62 melanoma
[44] = tested on: SW-620 colon
[45] = tested on: COLO 205 colon

What does the source list for `C[C@@H]1CC[C@H]2C(COCC3=C(C(F)(F)F)O[C@@H]4O[C@@]5(C)CC[C@H]6[C@H](C)CC[C@@H]3[C@@]46OO5)=C(C(F)(F)F)O[C@@H]3O[C@@]4(C)CC[C@@H]1[C@]32OO4`?
GI50 [1]: < 0.01 µM; TGI [1]: > 100 µM; GI50 [2]: < 0.01 µM; TGI [2]: > 100 µM; GI50 [3]: < 0.01 µM; TGI [3]: > 100 µM; GI50 [4]: < 0.01 µM; TGI [4]: > 100 µM; GI50 [5]: 0.0333 µM; TGI [5]: > 100 µM; GI50 [6]: < 0.0178 µM; TGI [6]: > 100 µM; GI50 [7]: < 0.01 µM; TGI [7]: > 100 µM; TGI [8]: > 100 µM; GI50 [9]: 0.182 µM; TGI [9]: > 100 µM; GI50 [10]: < 0.0284 µM; TGI [10]: > 100 µM; TGI [11]: > 100 µM; GI50 [12]: < 0.0233 µM; TGI [12]: > 100 µM; GI50 [13]: < 0.01 µM; TGI [13]: > 100 µM; GI50 [14]: 0.028 µM; TGI [14]: > 100 µM; GI50 [15]: 0.143 µM; TGI [15]: > 100 µM; GI50 [16]: < 0.01 µM; TGI [16]: > 100 µM; GI50 [17]: < 0.01 µM; TGI [17]: > 100 µM; GI50 [18]: 0.205 µM; TGI [18]: > 100 µM; GI50 [19]: < 0.01 µM; TGI [19]: > 100 µM; GI50 [20]: 0.0365 µM; TGI [20]: > 100 µM; GI50 [21]: < 0.01 µM; TGI [21]: > 100 µM; GI50 [22]: < 0.01 µM; TGI [22]: 0.073 µM; GI50 [23]: < 0.01 µM; TGI [23]: > 100 µM; GI50 [24]: < 0.01 µM; TGI [24]: > 100 µM; GI50 [25]: > 100 µM; TGI [25]: > 100 µM; GI50 [26]: 0.037 µM; TGI [26]: > 100 µM; GI50 [27]: 0.1 µM; GI50 [28]: < 0.0108 µM; TGI [28]: > 100 µM; GI50 [29]: < 0.01 µM; TGI [29]: > 100 µM; GI50 [30]: 0.0126 µM; TGI [30]: > 100 µM; GI50 [31]: 0.152 µM; TGI [31]: > 100 µM; GI50 [32]: 0.543 µM; TGI [32]: > 100 µM; GI50 [33]: 32.7 µM; TGI [33]: > 100 µM; GI50 [34]: < 0.01 µM; TGI [34]: > 100 µM; GI50 [35]: 0.047 µM; TGI [35]: > 100 µM; GI50 [36]: < 0.01 µM; TGI [36]: > 100 µM; GI50 [37]: 0.0101 µM; TGI [37]: > 100 µM; GI50 [38]: < 0.01 µM; TGI [38]: > 100 µM; GI50 [39]: 0.0439 µM; TGI [39]: > 100 µM; GI50 [40]: 0.0251 µM; TGI [40]: > 100 µM; GI50 [41]: 0.0109 µM; TGI [41]: > 100 µM; GI50 [42]: < 0.01 µM; TGI [42]: > 100 µM; GI50 [43]: 0.0609 µM; TGI [43]: > 100 µM; GI50 [44]: < 0.01 µM; TGI [44]: > 100 µM; GI50 [45]: < 0.01 µM; TGI [45]: 0.0835 µM
